Columns and labels:
[1] = system: Differentiated inducible PC12 cells; assay: L-glutamine add-back to MSO treated PC12 culture; type: cell-based
Protocol: The cells are grown overnight and aggregation is calculated. Inhibition of aggregation proceeds in a concentration-dependent manner.
In contrast, the addition of L-GLN has no effect on the growth of cells not treated with MSO or cultures treated with subinhibitory concentrations of MSO.

Huntington's disease = details: patients, cited from earlier work; for slowing of progression of Huntington's disease: large-scale clinical trial
[2] = system: Differentiated inducible PC12 cells; details: MSO 1-100 μM, low glutamine medium, overnight, fluorescent microscopy counts
Protocol: Cells (1×10^6) are plated in 10-cm plates using tissue culture medium low in glutamine to ensure that most of the glutamine in the cells is the product of de novo synthesis by cellular glutamine synthetase. […] MSO is added directly to the cell-culture media at final concentrations of 1-100 μM. The cells are grown overnight and aggregation is calculated. […] Visual counts of aggregates are performed by using fluorescent microscopy.

[3] = system: Drosophila transgenic polyQ line P{UAS-Q48myc}^42; details: Q48 flies fed MSO; Q48 flies without MSO need an average of 26 sec
Protocol: Flies are mated at 25° C. as described in Nature 413, 739-743. Eggs are collected and transferred into vials at 29° C. containing standard food supplemented with MSO, and adults are transferred to vials containing fresh food every 3 days after eclosion.
A second phenotype associated with expanded polyQ expression is a decrease in motor function. This is assayed by using an “escape” or climbing assay as described in Exp. Gerontol.

glutamine synthetase = glutamine synthetase (Homo sapiens, UniProt P15104); details: cited from earlier work
glutamine synthetase, sequence (P15104 2-373 limits assumed, species assumed): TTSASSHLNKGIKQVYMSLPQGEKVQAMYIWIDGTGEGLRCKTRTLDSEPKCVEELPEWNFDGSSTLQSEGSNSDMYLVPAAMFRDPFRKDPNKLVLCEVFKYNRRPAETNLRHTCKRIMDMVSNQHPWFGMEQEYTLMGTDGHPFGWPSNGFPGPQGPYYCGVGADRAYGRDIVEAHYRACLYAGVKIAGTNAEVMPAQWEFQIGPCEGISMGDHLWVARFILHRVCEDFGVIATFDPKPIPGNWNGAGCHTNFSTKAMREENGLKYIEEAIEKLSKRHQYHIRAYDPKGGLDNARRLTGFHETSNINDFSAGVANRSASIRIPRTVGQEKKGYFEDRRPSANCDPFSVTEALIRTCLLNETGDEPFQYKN

[4] = system: brain levels of glutamine; details: MSO administered to normal animals; reduced from 5.6; cited from earlier work
[5] = in vivo; cited from earlier work
[6] = system: mice with the gene mutation for Huntington's disease (HD); details: cited from earlier work

Structure (SMILES): NC(=O)CC[C@H](N)C(=O)O [L-glutamine]
- toxic protein synthesis and aggregation after addition of L-glutamine ([1]; MSO treated culture): increased toxic protein synthesis and aggregation
- growth of cells after addition of L-GLN ([1]; cells not treated with MSO or treated with subinhibitory concentrations of MSO): no effect

Structure (SMILES): CC(Cc1ccccc1)(NC(=O)CN)c1ccccc1 (stereo not shown) [Remacemide]
- slowing of progression of Huntington's disease (Huntington's disease): neither drug resulted in any significant improvement

Structure (SMILES): CS(=N)(=O)CC[C@H](N)C(=O)O (stereo partly drawn) [MSO, L-methionine S-sulfoximine]
- visible aggregate production (aggregation) [2]: inhibit aggregation
- time to climb a defined distance up a vial (motor function) [3]: require less time to climb the same distance
- type of inhibition of glutamine synthetase (glutamine synthetase): irreversible inhibitor
- brain levels of glutamine [4]: 1.8 mmol/kg brain

Structure (SMILES): CP(=O)(O)CCC(N)C(=O)O [Glufosinate, ammonium-D-L-homoalanine-4-yl(methyl)-phosphinate]
- crossing of the blood brain barrier [5]: does not cross the blood brain barrier
- type of inhibition of glutamine synthetase (glutamine synthetase): catalytic inhibitor

Structure (SMILES): NCCSSCCN [cystamine]
- tremors and survival ([6]; HD mutation mice): alleviate tremors and prolong life
- levels of neuroprotective proteins ([6]; mouse, in vivo): increase the levels of certain neuroprotective proteins

Structure (SMILES): COC1=C(OC)C(=O)C(C/C=C(\C)CC/C=C(\C)CC/C=C(\C)CC/C=C(\C)CC/C=C(\C)CC/C=C(\C)CC/C=C(\C)CC/C=C(\C)CC/C=C(\C)CCC=C(C)C)=C(C)C1=O [Coenzyme Q10]
- slowing of progression of Huntington's disease (Huntington's disease): neither drug resulted in any significant improvement
- disease progression after one year of treatment (Huntington's disease; one year of treatment, overall results inconclusive): seemed to progress more slowly
